Data from US10533044B2, “Integrin Antagonists” (The General Hospital Corporation, priority 2014, dated 2020).
Positions of bridges follow the written chain, without caps; N, C: chain ends. Non-standard residues stand in square brackets, D forms with d. Residues, ends and D or L forms follow the SMILES beside them. hArg = N=C(N)NCCCC[C@H](N)C(=O)O; Mpa = O=C(O)CCS

Key:
αVβ3 = experiment: AP5 LIBS expression on αVβ3^N/S or Mn2+-activated αVβ3 in presence of R-epti-D; assay type: cell-based; details: αVβ3^N/S in Ca2+/Mg2+ or Mn2+-activated αVβ3; preliminary study
Procedure: FIG. 16. […] One experiment was done under each condition. […] Common residues are in black. […] Spheres represent the metal ion at MIDAS.
K562-αVβ3 cells, transiently transfected HEK293T or αVβ3^+M21 cells (0.5×10^6 in 100 μl WB) were incubated in the absence or presence of unlabeled soluble FN10 (5 μg) in Ca^2+/Mg^2+ or in Mn^2+ (30 min; at 25° C.). Alexa647-labeled AP5 Fab (plus Alexa488-labeled AP3, when HEK293T cells were used), unlabeled anti-LIBS-1 (all to 10 μg/ml) or LIBS-6 ascites (to 1:50 dilution) were added, and the cells incubated for an additional 30 min before washing. APC-labeled goat anti-mouse Fc-specific antibody was added to anti-LIBS-1- or anti-LIBS-6-bound M21 cells, cells were incubated for an additional 30 min at 4° C. then washed, resuspended, fixed in 4% paraformaldehyde and analyzed by flow cytometry. LIBS epitope expression was measured and expressed as MFI (in case of K562-αVβ3 or M21 cells) and normalized (in case of HEK293T cells) by dividing its MFI by the MFI for Alexa488-labeled AP3, and multiplied by 100.

αVβ3^N/S [1] = target: T1, αVβ3^N/S (Homo sapiens, UniProt P05106+P06756, N365S); experiment: biochemical; details: IC50, inhibition of fibrinogen binding to αVβ3^N/S, HEK293 cells, constitutively active αVβ3^N/S
T1 sequence (P06756 31-889 limits assumed): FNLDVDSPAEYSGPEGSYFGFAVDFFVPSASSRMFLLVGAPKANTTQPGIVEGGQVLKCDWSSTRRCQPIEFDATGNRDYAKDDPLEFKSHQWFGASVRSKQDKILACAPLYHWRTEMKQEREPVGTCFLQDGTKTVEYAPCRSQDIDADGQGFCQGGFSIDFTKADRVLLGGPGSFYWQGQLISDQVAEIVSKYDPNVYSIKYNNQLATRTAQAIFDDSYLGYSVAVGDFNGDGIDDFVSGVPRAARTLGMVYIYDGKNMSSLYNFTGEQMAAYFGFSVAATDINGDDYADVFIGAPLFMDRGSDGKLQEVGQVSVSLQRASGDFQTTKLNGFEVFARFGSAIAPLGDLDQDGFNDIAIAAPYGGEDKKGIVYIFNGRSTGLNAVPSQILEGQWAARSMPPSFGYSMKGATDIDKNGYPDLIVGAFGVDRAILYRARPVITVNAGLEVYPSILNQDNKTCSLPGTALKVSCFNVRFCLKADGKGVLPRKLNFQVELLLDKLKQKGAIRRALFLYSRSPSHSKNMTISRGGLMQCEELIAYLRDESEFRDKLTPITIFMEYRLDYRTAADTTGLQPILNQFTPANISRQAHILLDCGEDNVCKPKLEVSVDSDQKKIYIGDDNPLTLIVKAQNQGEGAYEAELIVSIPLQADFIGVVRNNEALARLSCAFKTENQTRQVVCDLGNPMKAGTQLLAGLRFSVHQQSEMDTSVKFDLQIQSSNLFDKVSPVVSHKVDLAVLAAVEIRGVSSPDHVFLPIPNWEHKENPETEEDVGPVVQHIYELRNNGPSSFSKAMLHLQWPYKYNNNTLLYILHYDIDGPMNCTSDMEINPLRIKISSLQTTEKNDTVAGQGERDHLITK
T1 sequence (P06756 891-1048 partner limits assumed): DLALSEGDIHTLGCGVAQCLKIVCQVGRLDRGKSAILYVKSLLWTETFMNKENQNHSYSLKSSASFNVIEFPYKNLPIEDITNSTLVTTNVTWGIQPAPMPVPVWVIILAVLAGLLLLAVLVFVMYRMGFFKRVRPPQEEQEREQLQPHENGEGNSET
T1 sequence (P05106 27-788 N365S): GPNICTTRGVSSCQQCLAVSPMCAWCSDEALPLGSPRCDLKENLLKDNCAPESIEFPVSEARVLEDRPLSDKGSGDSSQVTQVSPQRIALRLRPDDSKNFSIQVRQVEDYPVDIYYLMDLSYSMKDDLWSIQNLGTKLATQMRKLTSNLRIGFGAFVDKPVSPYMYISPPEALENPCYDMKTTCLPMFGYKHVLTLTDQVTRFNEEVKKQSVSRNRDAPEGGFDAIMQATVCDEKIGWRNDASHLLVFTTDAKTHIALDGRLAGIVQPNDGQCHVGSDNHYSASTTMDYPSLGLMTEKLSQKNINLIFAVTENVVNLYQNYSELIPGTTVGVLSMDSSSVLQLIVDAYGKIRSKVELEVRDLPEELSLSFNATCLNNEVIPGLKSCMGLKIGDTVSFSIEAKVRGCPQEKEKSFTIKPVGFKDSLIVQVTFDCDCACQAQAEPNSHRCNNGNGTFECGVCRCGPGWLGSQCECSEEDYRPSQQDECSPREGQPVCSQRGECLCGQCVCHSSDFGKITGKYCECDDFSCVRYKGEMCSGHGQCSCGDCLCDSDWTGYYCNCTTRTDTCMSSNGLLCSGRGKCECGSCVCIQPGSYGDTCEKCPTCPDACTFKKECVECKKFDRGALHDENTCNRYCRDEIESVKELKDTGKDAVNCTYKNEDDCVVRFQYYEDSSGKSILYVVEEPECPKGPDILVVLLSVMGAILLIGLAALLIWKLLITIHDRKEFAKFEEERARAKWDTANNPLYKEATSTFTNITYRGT

platelet integrin αIIbβ3 = platelet integrin αIIbβ3 (Homo sapiens, UniProt P05106+P08514); details: parenteral use; cited from earlier work
Chain of platelet integrin αIIbβ3 (P08514 32-887 limits assumed): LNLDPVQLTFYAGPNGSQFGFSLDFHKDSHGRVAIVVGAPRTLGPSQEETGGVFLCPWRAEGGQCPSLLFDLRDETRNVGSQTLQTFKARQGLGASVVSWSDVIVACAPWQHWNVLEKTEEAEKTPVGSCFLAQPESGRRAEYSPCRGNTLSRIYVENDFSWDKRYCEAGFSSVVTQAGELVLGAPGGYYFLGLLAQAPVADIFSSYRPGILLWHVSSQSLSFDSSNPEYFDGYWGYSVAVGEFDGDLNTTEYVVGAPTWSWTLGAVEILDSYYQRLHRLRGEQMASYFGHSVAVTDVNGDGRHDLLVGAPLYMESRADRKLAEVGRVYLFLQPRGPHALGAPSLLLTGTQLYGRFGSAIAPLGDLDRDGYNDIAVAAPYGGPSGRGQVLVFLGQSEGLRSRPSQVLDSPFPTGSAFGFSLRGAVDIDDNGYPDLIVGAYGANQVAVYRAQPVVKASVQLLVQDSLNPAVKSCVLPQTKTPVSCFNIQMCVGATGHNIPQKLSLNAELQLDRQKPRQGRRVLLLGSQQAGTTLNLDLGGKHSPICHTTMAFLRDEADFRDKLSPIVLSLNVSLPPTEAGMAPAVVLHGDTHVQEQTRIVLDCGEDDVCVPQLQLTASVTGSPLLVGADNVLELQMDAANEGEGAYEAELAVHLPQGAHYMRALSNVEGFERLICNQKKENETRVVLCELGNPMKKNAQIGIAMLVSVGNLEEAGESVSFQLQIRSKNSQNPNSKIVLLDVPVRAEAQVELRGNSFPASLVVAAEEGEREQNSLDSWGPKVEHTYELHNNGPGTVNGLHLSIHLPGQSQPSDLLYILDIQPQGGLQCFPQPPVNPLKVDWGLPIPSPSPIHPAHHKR
Chain of platelet integrin αIIbβ3 (P08514 891-1039 partner limits assumed): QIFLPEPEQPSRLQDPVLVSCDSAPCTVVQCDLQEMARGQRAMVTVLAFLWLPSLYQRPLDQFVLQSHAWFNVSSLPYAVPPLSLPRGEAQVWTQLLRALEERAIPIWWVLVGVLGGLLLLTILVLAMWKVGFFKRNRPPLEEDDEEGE
Chain of platelet integrin αIIbβ3 (P05106 27-788): as the sequence (P05106 27-788 N365S) above, with S339N counted along it

αVβ3^N/S [2] = target: T1, αVβ3^N/S

SMILES | AP5 LIBS expression (αVβ3) | IC50 (αVβ3^N/S [1]) | IC50 (αVβ3^N/S [1]; converted) | Patients with severe thrombocytopenia (platelet integrin αIIbβ3) | Binding to αVβ3 (αVβ3^N/S [2])
N=C(N)NCCC[C@@H]1NC(=O)CCSSC[C@@H](C(N)=O)NC(=O)[C@@H]2CCCN2C(=O)[C@@H](Cc2c[nH]c3ccccc23)NC(=O)[C@H](CC(=O)O)NC(=O)CNC1=O [R-epti-D] ([Mpa]RGD[dW]PC-NH2; disulfide 1-7) | reduced AP5 LIBS expression | 2080 nM | ~2000 nM | – | –
N=C(N)NCCCC[C@@H]1NC(=O)CCSSC[C@@H](C(N)=O)NC(=O)[C@@H]2CCCN2C(=O)[C@H](Cc2c[nH]c3ccccc23)NC(=O)[C@H](CC(=O)O)NC(=O)CNC1=O [eptifibatide] ([Mpa][hArg]GDWPC-NH2; disulfide 1-7) | – | – | – | ~2% | does not bind
